For one assay, the target named is T1, human FPR1 (Homo sapiens, UniProt P21462).
T1 sequence (P21462 1-350): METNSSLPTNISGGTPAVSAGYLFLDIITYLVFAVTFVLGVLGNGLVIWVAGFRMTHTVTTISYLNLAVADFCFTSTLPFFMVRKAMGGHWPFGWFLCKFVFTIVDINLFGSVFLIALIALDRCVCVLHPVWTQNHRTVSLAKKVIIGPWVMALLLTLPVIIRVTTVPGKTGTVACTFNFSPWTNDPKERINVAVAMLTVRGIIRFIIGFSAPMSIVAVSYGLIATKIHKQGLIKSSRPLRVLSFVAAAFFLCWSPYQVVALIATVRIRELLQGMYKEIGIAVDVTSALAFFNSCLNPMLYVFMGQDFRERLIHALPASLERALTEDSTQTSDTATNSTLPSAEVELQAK
As to the kind of experiment: FPR1 cyclic adenosine monophosphate (cAMP) assay. As to conditions: CHO cells overexpressing human FPR1; inhibition of forskolin-stimulated cAMP production; read-out: hFPR1 cAMP EC50. It is filed as cell-based. As to the method: (§1) FPR2 and FPR1 Cyclic Adenosine Monophosphate (cAMP) Assays. A mixture of forskolin (5 μM final for FPR2 or 10 μM final for FPR1) and IBMX (200 μM final) were added to 384-well Proxiplates (Perkin-Elmer) pre-dotted with test compounds in DMSO (1% final) at final concentrations in the range of 1.7 nM to 100 μM. Chinese Hamster Ovary cells (CHO) overexpressing human FPR1 or human FPR2 receptors were cultured in F-12 (Ham's) medium supplemented with 10% qualified FBS, 250 μg/ml zeocin and 300 μg/ml hygromycin (Life Technologies). Reactions were initiated by adding 2,000 human FPR2 cells per well or 4,000 human FPR1 cells per well in Dulbecco's PBS (with calcium and magnesium) (Life Technologies) supplemented with 0.1% BSA (Perkin-Elmer). The reaction mixtures were incubated for 30 min at room temperature. The level of intracellular cAMP was determined using the HTRF HiRange cAMP assay reagent kit (Cisbio) according to manufacturer's instruction. Solutions of cryptate conjugated anti-cAMP and d2 flurorophore-labelled cAMP were made in a supplied lysis buffer separately. Upon completion of the reaction, the cells were lysed with equal volume of the d2-cAMP solution and anti-cAMP solution. After a 1-h room temperature incubation, time-resolved fluorescence intensity was measured using the Envision (Perkin-Elmer) at 400 nm excitation and dual emission at 590 nm and 665 nm. A calibration curve was constructed with an external cAMP standard at concentrations ranging from 1 μM to 0.1 pM by plotting the fluorescent intensity ratio from 665 nm emission to the intensity from the 590 nm emission against cAMP concentrations. The potency and activity of a compound to inhibit cAMP production was then determined by fitting to a 4-parametric logistic equation from a plot of cAMP level versus compound concentrations.

Another assay has as its target T2, human FPR2 (Homo sapiens, UniProt P25090).
T2 sequence (P25090 1-351): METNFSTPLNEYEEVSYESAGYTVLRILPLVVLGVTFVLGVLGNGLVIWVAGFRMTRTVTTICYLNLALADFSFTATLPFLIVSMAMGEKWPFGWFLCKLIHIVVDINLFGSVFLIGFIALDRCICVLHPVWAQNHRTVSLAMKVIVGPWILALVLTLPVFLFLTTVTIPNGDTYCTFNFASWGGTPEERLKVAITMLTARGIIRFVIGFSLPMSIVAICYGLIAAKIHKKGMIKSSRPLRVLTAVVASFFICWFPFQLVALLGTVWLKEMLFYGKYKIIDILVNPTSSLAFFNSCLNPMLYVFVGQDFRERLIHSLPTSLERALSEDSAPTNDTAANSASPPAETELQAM
The assay is described as follows: FPR2 cyclic adenosine monophosphate (cAMP) assay. Format: cell-based. To be noted: CHO cells overexpressing human FPR2; inhibition of forskolin-stimulated cAMP production; read-out: hFPR2 cAMP2 EC50. As to the method: as §1

Our source for the EC50 values is patent publication US11180490B2, “Cyclopropyl urea formyl peptide 2 receptor and formyl peptide 1 receptor agonists” (BRISTOL-MYERS SQUIBB COMPANY, priority 2017, dated 2021).

As usually defined, the EC50 is the concentration giving half of the maximal effect.

`COc1cc(F)c([C@@H]2CNC(=O)[C@H]2NC(=O)NC2(c3cccc(Cl)n3)CC2)c(F)c1` [Example 1, 3-[1-(6-chloropyridin-2-yl)cyclopropyl]-1-[(3S,4R)-4-(2,6-difluoro-4-methoxyphenyl)-2-oxopyrrolidin-3-yl]urea]: the EC50 on human FPR1 turned out to be 820 nM; at human FPR2 it was 8.3 nM.

For `COc1cc(F)c([C@@H]2CNC(=O)[C@H]2NC(=O)NC2(c3ccc(C)cc3)CC2)c(F)c1` [Example 2, 1-[(3S,4R)-4-(2,6-difluoro-4-methoxyphenyl)-2-oxopyrrolidin-3-yl]-3-[1-(4-methylphenyl)cyclopropyl]urea], the EC50 turned out to be 660 nM on human FPR1 and 33 nM at human FPR2.

Turning to `COc1cc(F)c([C@@H]2CNC(=O)[C@H]2NC(=O)NC2(c3ccc4ncccc4n3)CC2)c(F)c1` [Example 4, 1-[(3S,4R)-4-(2,6-difluoro-4-methoxyphenyl)-2-oxopyrrolidin-3-yl]-3-[1-(1,5-naphthyridin-2-yl)cyclopropyl]urea], the results for the concentration giving a half-maximal response (EC50) at human FPR1 and at human FPR2 were 1000 nM and 110 nM, respectively.

As to `COc1cc(F)c([C@@H]2CN(C)C(=O)[C@H]2NC(=O)NC2(c3ccc4ccccc4n3)CC2)c(F)c1` [Example 8, 1-[(3S,4R)-4-(2,6-difluoro-4-methoxyphenyl)-1-methyl-2-oxopyrrolidin-3-yl]-3-[1-(quinolin-2-yl)cyclopropyl]urea], the EC50 on human FPR1 was 66 nM; at human FPR2, 5.7 nM.

As for `COc1cc(F)c([C@@H]2CNC(=O)[C@H]2NC(=O)NC2(c3cccc(C(F)(F)F)c3)CC2)c(F)c1` [Example 19, 1-[(3S,4R)-4-(2,6-difluoro-4-methoxyphenyl)-2-oxopyrrolidin-3-yl]-3-{1-[3-(trifluoro-methyl)phenyl]cyclo-propyl}urea], the values for the EC50 at human FPR1 and at human FPR2 were 2300 nM and 49 nM, respectively.

For the compound `COc1cc(F)c([C@@H]2CNC(=O)[C@H]2NC(=O)NC2(c3ccc4ccccc4n3)CC2)c(F)c1` [Example 26, 1-[(3S,4R)-4-(2,6-difluoro-4-methoxyphenyl)-2-oxopyrrolidin-3-yl]-3-[1-(quinolin-2-yl)cyclopropyl]urea], the EC50 on human FPR1 stood at 320 nM; at human FPR2, 6.4 nM.

As to `COc1cc(F)c([C@@H]2CNC(=O)[C@H]2NC(=O)NC2(c3ccc(Cl)c(C)n3)CC2)c(F)c1` [Example 47, 3-[1-(5-chloro-6-methylpyridin-2-yl)cyclopropyl]-1-[(3S,4R)-4-(2.6-difluoro-4-methoxyphenyl)-2-oxopyrrolidin-3-yl]urea], the half-maximal effective concentration (EC50) was found to be 270 nM on human FPR1 and 2.3 nM on human FPR2.

Regarding `COc1ccc([C@@H]2CNC(=O)[C@H]2NC(=O)NC2(c3cccc(Cl)n3)CC2)c(F)c1` [Example 48, 3-[1-(6-chloropyridin-2-yl)cyclopropyl]-1-[(3S,4R)-4-(2-fluoro-4-methoxyphenyl)-2-oxopyrrolidin-3-yl]urea], the figures for the EC50 on human FPR1 and on human FPR2 were 140 nM and 9.7 nM, respectively.

With `COc1cc(F)c([C@@H]2CNC(=O)[C@H]2NC(=O)NC2(c3ccc(C)c(Cl)c3)CC2)c(F)c1` [Example 50, 3-[1-(3-chloro-4-methylphenyl)cyclopropyl]-1-[(3S,4R)-4-(2,6-difluoro-4-methoxyphenyl)-2-oxopyrrolidin-3-yl]urea], the results for the 50% effective concentration (EC50) at human FPR1 and at human FPR2 were 200 nM and 1.7 nM, respectively.

Regarding `COc1cc(F)c([C@@H]2CNC(=O)[C@H]2NC(=O)NC2(c3ccc4cc(Cl)ccc4n3)CC2)c(F)c1` [Example 53, 3-[1-(6-chloroquinolin-2-yl)cyclopropyl]-1-[(3S,4R)-4-(2,6-difluoro-4-methoxyphenyl)-2-oxopyrrolidin-3-yl]urea], the concentration giving a half-maximal response (EC50) on human FPR1 was 430 nM; on human FPR2, 12 nM.

For `COc1cc(F)c([C@@H]2CNC(=O)[C@H]2NC(=O)NC2(c3ccc4cc(OC)ccc4c3)CC2)c(F)c1` [Example 63, 1-[(3S,4R)-4-(2,6-difluoro-4-methoxyphenyl)-2-oxopyrrolidin-3-yl]-3-[1-(6-methoxynaphthalen-2-yl)cyclopropyl]urea], the EC50 stood at 1500 nM on human FPR1 and 34 nM at human FPR2.

As to `COc1cc(F)c([C@@H]2CN(CCO)C(=O)[C@H]2NC(=O)NC2(c3ccc4ccccc4n3)CC2)c(F)c1` [Example 67, 1-[(3S,4R)-4-(2,6-difluoro-4-methoxyphenyl)-1-(2-hydroxyethyl)-2-oxopyrrolidin-3-yl]-3-[1-(quinolin-2-yl)cyclopropyl]urea], the 50% effective concentration (EC50) on human FPR1 amounted to 700 nM; on human FPR2 it was 63 nM.

With `COc1cc(F)c([C@@H]2CNC(=O)[C@H]2NC(=O)NC2(c3nc4ccc(C)cc4s3)CC2)c(F)c1` [Example 85, 1-[(3S,4R)-4-(2,6-difluoro-4-methoxyphenyl)-2-oxopyrrolidin-3-yl]-3-[1-(6-methyl-1,3-benzothiazol-2-yl)cyclopropyl]urea], the EC50 on human FPR1 was 1600 nM; on human FPR2, 12 nM.

As to `COc1cc(F)c([C@@H]2CN(CC3CC3)C(=O)[C@H]2NC(=O)NC2(c3cccc(C)n3)CC2)c(F)c1` [Example 94, 1-((3S,4R)-1-(cyclopropylmethyl)-4-(2,6-difluoro-4-methoxyphenyl)-2-oxopyrrolidin-3-yl)-3-(1-(6-methylpyridin-2-yl)cyclopropyl)urea], the half-maximal effective concentration (EC50) on human FPR1 amounted to 26 nM; on human FPR2, 1.5 nM.

As to `CCCN1C[C@@H](c2c(F)cc(OC)cc2F)[C@H](NC(=O)NC2(c3ccc4ccccc4n3)CC2)C1=O` [Example 95, 1-[(3S,4R)-4-(2,6-difluoro-4-methoxyphenyl)-2-oxo-1-propylpyrrolidin-3-yl]-3-[1-(quinolin-2-yl)cyclopropyl]urea], the concentration giving a half-maximal response (EC50) worked out at 19 nM on human FPR1 and 1.7 nM at human FPR2.

`COc1cc(F)c([C@@H]2CNC(=O)[C@H]2NC(=O)NC2(c3nc4c(C(F)(F)F)cccc4s3)CC2)c(F)c1` [Example 96, 1-[(3S,4R)-4-(2,6-difluoro-4-methoxyphenyl)-2-oxopyrrolidin-3-yl]-3-{1-[4-(trifluoromethyl)-1,3-benzothiazol-2-yl]cyclopropyl}urea]: the EC50 on human FPR1 was found to be 120 nM; at human FPR2, 2 nM.

As for `COc1cc(F)c([C@@H]2CN(CC(F)(F)F)C(=O)[C@H]2NC(=O)NC2(c3cccc(C)n3)CC2)c(F)c1` [Example 110, 1-[(3S,4R)-4-(2,6-difluoro-4-methoxyphenyl)-2-oxo-1-(2,2,2-trifluoroethyl)pyrrolidin-3-yl]-3-[1-(6-methylpyridin-2-yl)cyclopropyl]urea], the concentration giving a half-maximal response (EC50) was determined as 150 nM on human FPR1 and 14 nM at human FPR2.

In the case of `COc1cc(F)c([C@@H]2CN(Cc3nnc(C)o3)C(=O)[C@H]2NC(=O)NC2(c3cccc(C)n3)CC2)c(F)c1` [Example 115], the EC50 worked out at 280 nM at human FPR1 and 25 nM at human FPR2.

`COc1cc(F)c([C@@H]2CNC(=O)[C@H]2NC(=O)NC2(c3cccc(OCc4ccc5ccccc5c4)c3)CC2)c(F)c1` [Example 131, 1-[(3S,4R)-4-(2,6-difluoro-4-methoxyphenyl)-2-oxopyrrolidin-3-yl]-3-(l-{3-[(naphthalen-2-yl)methoxy]phenyl}cyclo-propyl)urea]: the concentration giving a half-maximal response (EC50) was 1000 nM at human FPR1 and 4 nM at human FPR2.
